These results are taken from patent US12202818B2, “Compounds and methods for CD73 modulation and indications therefor” (Opna Bio SA, priority 2020, dated 2025).

Each structure is given as a SMILES string.

Test [1] addresses T1, Human CD73 (amino acid residues 27-549) (Homo sapiens, UniProt P21589).
T1 construct: Human CD73 (amino acid residues 27-549); His tag (N); made in house; host or cells: E. coli
T1 sequence (P21589 27-549): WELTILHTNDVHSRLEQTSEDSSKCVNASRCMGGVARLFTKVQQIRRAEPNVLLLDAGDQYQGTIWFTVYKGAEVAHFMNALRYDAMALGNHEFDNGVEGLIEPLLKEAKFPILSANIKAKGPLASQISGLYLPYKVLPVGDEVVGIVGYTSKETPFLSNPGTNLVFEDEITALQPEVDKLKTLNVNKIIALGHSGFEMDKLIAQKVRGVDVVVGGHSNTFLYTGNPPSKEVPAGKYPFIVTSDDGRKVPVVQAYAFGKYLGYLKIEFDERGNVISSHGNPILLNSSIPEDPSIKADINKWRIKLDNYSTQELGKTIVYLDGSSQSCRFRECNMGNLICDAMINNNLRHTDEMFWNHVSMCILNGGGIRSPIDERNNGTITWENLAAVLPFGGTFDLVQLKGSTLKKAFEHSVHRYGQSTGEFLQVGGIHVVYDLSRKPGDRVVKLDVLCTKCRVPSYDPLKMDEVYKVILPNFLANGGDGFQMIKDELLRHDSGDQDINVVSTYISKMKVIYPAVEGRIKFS
As to the kind of experiment: CD73 enzymatic assay (luciferase-based indirect assay, CellTiter-Glo). Format: biochemical. The note with it: 0.4 nM CD73, 150 μM AMP, 1 hour at room temperature. The method, boiled down:
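Luciferase-coupled readout: AMP left after CD73 turnover suppresses CellTiter-Glo signal (1 μM ATP final, 30 min RT). Reaction beforehand: 150 μM AMP, 0.4 nM E. coli-made His-tagged CD73 residues 27-549, test compound, HEPES pH 7.4 with Tween-20, 1 h RT. % inhibition fitted nonlinearly for IC50.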
Background: In ATP-based viability assays light output follows the ATP content of the culture.

In a further test the target is T2, human CD73 (Homo sapiens, UniProt P21589).
T2 construct: expressed in transfected cells
T2 sequence (P21589 27-549): T1 sequence (P21589 27-549)
As to the kind of experiment: Inhibitor activity against CD73 in cell based assay (CD73 expressing CHO-K1 cells). The note with it: CHO-K1 cells expressing human CD73, 150 μM AMP, 4 hours of incubation; read-out: CHO-K1 CELL_VARIANT: CD73 IC50. An outline of the steps:
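AMP (150 μM) was added alongside 8 titrated compound doses (maximum 10 μM, 1:3 steps) to CHO-K1 cells stably expressing human CD73. After 4 h, supernatant AMP was measured indirectly with CellTiter-Glo 2.0 plus 1 μM ATP (30 min, RT). % inhibition versus high and low controls was fitted nonlinearly for IC50.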

What is called IC50 is the concentration needed to halve the response being measured. Turning to `Cc1nn(C)c(C)c1-c1cc(O[C@@H]2CCN(c3cnn(CCO)c(=O)c3Cl)C2)ncn1` [P-0128, (R)-4-chloro-2-(2-hydroxyethyl)-5-(3-((6-(1,3,5-trimethyl-1H-pyrazol-4-yl)pyrimidin-4-yl)oxy)pyrrolidin-1-yl)pyridazin-3(2H)-one], the 50% inhibitory concentration (IC50) (in test [1]; at human CD73) was 0.001 to 10 µM each time.

With `Cc1noc(C)c1-c1cc(O[C@H]2CN(c3cnn(CC(O)CO)c(=O)c3Cl)C[C@@H]2F)ncc1F` (stereo partly drawn) [P-0129, 4-chloro-2-(2,3-dihydroxypropyl)-5-((3S,4S)-3-((4-(3,5-dimethylisoxazol-4-yl)-5-fluoropyridin-2-yl)oxy)-4-fluoropyrrolidin-1-yl)pyridazin-3(2H)-one], the IC50 (in test [1]; at human CD73) was 0.001 to 10 µM each time.

Take `Cc1nn(CC2(F)COC2)c(C)c1-c1ccnc(O[C@@H]2CCN(c3cn[nH]c(=O)c3Cl)C2)c1` [P-0130, (R)-4-chloro-5-(3-((4-(1-((3-fluorooxetan-3-yl)methyl)-3,5-dimethyl-1H-pyrazol-4-yl)pyridin-2-yl)oxy)pyrrolidin-1-yl)pyridazin-3(2H)-one]: the half-maximal inhibitory concentration (IC50) (in test [1]; at human CD73) was 0.001 to 10 µM throughout.

As for `Cc1nn(C)c(C)c1-c1ccnc(O[C@@H]2CCN(c3cnn(CC(O)CO)c(=O)c3Cl)C2)c1` (stereo partly drawn) [P-0131, 4-chloro-2-(2,3-dihydroxypropyl)-5-((R)-3-((4-(1,3,5-trimethyl-1H-pyrazol-4-yl)pyridin-2-yl)oxy)pyrrolidin-1-yl)pyridazin-3(2H)-one], the IC50 (in test [1]; on human CD73) was 0.001 to 10 µM in each case.

With `Cc1noc(C)c1-c1cc(O[C@H]2CN(c3cnn(CCO)c(=O)c3Cl)C[C@@H]2F)ncc1F` [P-0132, 4-chloro-5-((3S,4S)-3-((4-(3,5-dimethylisoxazol-4-yl)-5-fluoropyridin-2-yl)oxy)-4-fluoropyrrolidin-1-yl)-2-(2-hydroxyethyl)pyridazin-3(2H)-one], the IC50 (in test [1]; at human CD73) was 0.001 to 10 µM in each case.

With `Cc1nn(CC2(F)COC2)c(C)c1-c1cc(F)nc(O[C@@H]2CCN(c3cn[nH]c(=O)c3Cl)C2)c1` [P-0133, (R)-4-chloro-5-(3-((6-fluoro-4-(1-((3-fluorooxetan-3-yl)methyl)-3,5-dimethyl-1H-pyrazol-4-yl)pyridin-2-yl)oxy)pyrrolidin-1-yl)pyridazin-3(2H)-one], the IC50 (in test [1]; at human CD73) was 0.001 to 10 µM throughout.

With `Cc1noc(C)c1-c1cc(O[C@H]2CN(c3cn[nH]c(=O)c3Cl)C[C@@H]2F)ncc1F` [P-0134, 4-chloro-5-((3S,4S)-3-((4-(3,5-dimethylisoxazol-4-yl)-5-fluoropyridin-2-yl)oxy)-4-fluoropyrrolidin-1-yl)pyridazin-3(2H)-one], the concentration for half-maximal inhibition (IC50) (in test [1]; at human CD73) was 0.001 to 10 µM each time.

Regarding `Cc1nn(C)c(C)c1-c1cc(O[C@@H]2CCN(c3cnn(CCO)c(=O)c3Cl)C2)ccn1` [P-0135, (R)-4-chloro-2-(2-hydroxyethyl)-5-(3-((2-(1,3,5-trimethyl-1H-pyrazol-4-yl)pyridin-4-yl)oxy)pyrrolidin-1-yl)pyridazin-3(2H)-one], the IC50 (in test [1]; at human CD73) was 0.001 to 10 µM in each case.

`Cc1noc(C)c1-c1cc(O[C@@H]2CCN(c3cnn(CCO)c(=O)c3Cl)C2)ccn1` [P-0136, (R)-4-chloro-5-(3-((2-(3,5-dimethylisoxazol-4-yl)pyridin-4-yl)oxy)pyrrolidin-1-yl)-2-(2-hydroxyethyl)pyridazin-3(2H)-one]: the half-inhibitory concentration (IC50) (in test [1]; at human CD73) was 0.001 to 10 µM each time.

Turning to `Cc1nn(C)c(C)c1-c1cc(O[C@@H]2CCN(c3cn[nH]c(=O)c3Cl)C2)ccn1` [P-0137, (R)-4-chloro-5-(3-((2-(1,3,5-trimethyl-1H-pyrazol-4-yl)pyridin-4-yl)oxy)pyrrolidin-1-yl)pyridazin-3(2H)-one], the IC50 (in test [1]; on human CD73) was 0.001 to 10 µM throughout.

On to `Cc1noc(C)c1-c1cc(O[C@@H]2CCN(c3cn[nH]c(=O)c3Cl)C2)ccn1` [P-0138, (R)-4-chloro-5-(3-((2-(3,5-dimethylisoxazol-4-yl)pyridin-4-yl)oxy)pyrrolidin-1-yl)pyridazin-3(2H)-one], for which the half-inhibitory concentration (IC50) (in test [1]; on human CD73) was 0.001 to 10 µM throughout.

On to `Cc1noc(C)c1-c1cc(O[C@@H]2CCN(c3cnn(CCCO)c(=O)c3Cl)C2)ncn1` [P-0139, (R)-4-chloro-5-(3-((6-(3,5-dimethylisoxazol-4-yl)pyrimidin-4-yl)oxy)pyrrolidin-1-yl)-2-(3-hydroxypropyl)pyridazin-3(2H)-one], for which the IC50 (in test [1]; on human CD73) was 0.001 to 10 µM in each case.

In the case of `Cc1noc(C)c1-c1cc(O[C@@H]2CCN(c3cnn(CC(O)CO)c(=O)c3Cl)C2)ncn1` (stereo partly drawn) [P-0140, 4-chloro-2-(2,3-dihydroxypropyl)-5-((R)-3-((6-(3,5-dimethylisoxazol-4-yl)pyrimidin-4-yl)oxy)pyrrolidin-1-yl)pyridazin-3(2H)-one], the 50% inhibitory concentration (IC50) (in test [1]; at human CD73) was 0.001 to 10 µM throughout.

Consider `Cc1noc(C)c1-c1cc(O[C@@H]2CCN(c3cnn(CCN)c(=O)c3Cl)C2)ncn1` [P-0141, (R)-2-(2-aminoethyl)-4-chloro-5-(3-((6-(3,5-dimethylisoxazol-4-yl)pyrimidin-4-yl)oxy)pyrrolidin-1-yl)pyridazin-3(2H)-one], for which the 50% inhibitory concentration (IC50) (in test [1]; at human CD73) was 0.001 to 10 µM throughout.

For `Cc1nn(C)c(C)c1-c1ccnc(O[C@H]2CN(c3cnn(CCO)c(=O)c3Cl)C[C@@H]2F)c1` [P-0142, 4-chloro-5-((3S,4S)-3-fluoro-4-((4-(1,3,5-trimethyl-1H-pyrazol-4-yl)pyridin-2-yl)oxy)pyrrolidin-1-yl)-2-(2-hydroxyethyl)pyridazin-3(2H)-one], the half-inhibitory concentration (IC50) (in test [1]; at human CD73) was 0.001 to 10 µM each time.

For `Cc1nn(C)c(C)c1-c1ccnc(O[C@@H]2CCN(c3cnn(CCO)c(=O)c3Cl)C2)c1` [P-0143, (R)-4-chloro-2-(2-hydroxyethyl)-5-(3-((4-(1,3,5-trimethyl-1H-pyrazol-4-yl)pyridin-2-yl)oxy)pyrrolidin-1-yl)pyridazin-3(2H)-one], the IC50 (in test [1]; at human CD73) was 0.001 to 10 µM in each case.

Take `Cc1nn(C)c(C)c1-c1cc(O[C@H]2CN(c3cnn(CCO)c(=O)c3Cl)C[C@@H]2F)ncn1` [P-0144, 4-chloro-5-((3S,4S)-3-fluoro-4-((6-(1,3,5-trimethyl-1H-pyrazol-4-yl)pyrimidin-4-yl)oxy)pyrrolidin-1-yl)-2-(2-hydroxyethyl)pyridazin-3(2H)-one]: the IC50 (in test [1]; at human CD73) was 0.001 to 10 µM throughout.

As to `Cc1noc(C)c1-c1cc(O[C@H]2CN(c3cnn(CCO)c(=O)c3Cl)C[C@@H]2F)ncn1` [P-0145, 4-chloro-5-((3S,4S)-3-((6-(3,5-dimethylisoxazol-4-yl)pyrimidin-4-yl)oxy)-4-fluoropyrrolidin-1-yl)-2-(2-hydroxyethyl)pyridazin-3(2H)-one], the concentration for half-maximal inhibition (IC50) (in test [1]; on human CD73) was 0.001 to 10 µM in each case.

`Cc1noc(C)c1-c1cc(O[C@@H]2CCN(c3cnn(CCO)c(=O)c3Cl)C2)ncc1F` [P-0146, (R)-4-chloro-5-(3-((4-(3,5-dimethylisoxazol-4-yl)-5-fluoropyridin-2-yl)oxy)pyrrolidin-1-yl)-2-(2-hydroxyethyl)pyridazin-3(2H)-one]: the IC50 (in test [1]; on human CD73) was 0.001 to 10 µM in each case.

With `Cc1nn(C)c(C)c1-c1cc(O[C@H]2CN(c3cn[nH]c(=O)c3Cl)C[C@@H]2F)ncn1` [P-0147, 4-chloro-5-((3S,4S)-3-fluoro-4-((6-(1,3,5-trimethyl-1H-pyrazol-4-yl)pyrimidin-4-yl)oxy)pyrrolidin-1-yl)pyridazin-3(2H)-one], the IC50 (in test [1]; at human CD73) was 0.001 to 10 µM throughout.

In the case of `Cc1noc(C)c1-c1cc(O[C@H]2CN(c3cn[nH]c(=O)c3Cl)C[C@@H]2F)ncn1` [P-0148, 4-chloro-5-((3S,4S)-3-((6-(3,5-dimethylisoxazol-4-yl)pyrimidin-4-yl)oxy)-4-fluoropyrrolidin-1-yl)pyridazin-3(2H)-one], the half-inhibitory concentration (IC50) (in test [1]; on human CD73) was 0.001 to 10 µM each time.

Take `Cc1noc(C)c1-c1cc(O[C@@H]2CCN(c3cn[nH]c(=O)c3Cl)C2)ncc1F` [P-0149, (R)-4-chloro-5-(3-((4-(3,5-dimethylisoxazol-4-yl)-5-fluoropyridin-2-yl)oxy)pyrrolidin-1-yl)pyridazin-3(2H)-one]: the half-inhibitory concentration (IC50) (in test [1]; on human CD73) was 0.001 to 10 µM throughout.

`COCc1noc(C)c1-c1ccnc(O[C@@H]2CCN(c3cn[nH]c(=O)c3Cl)C2)c1` [P-0150, (R)-4-chloro-5-(3-((4-(3-(methoxymethyl)-5-methylisoxazol-4-yl)pyridin-2-yl)oxy)pyrrolidin-1-yl)pyridazin-3(2H)-one]: the IC50 (in test [1]; at human CD73) was 0.001 to 10 µM each time.
